Reference: the supplement of paper PMC10307832

How the values were obtained:
Test in all cases: relative viability (nuclei count vs DMSO), 5 days (fraction); higher = more cells survive
[1] = compound: CC1=CC=C(C=C1)C(=O)CN2C3=C(CCCC3)SC2=N [Pifithrin_alpha] + CC(=O)Nc1cccc(-n2c(=O)n(C3CC3)c(=O)c3c(Nc4ccc(I)cc4F)n(C)c(=O)c(C)c32)c1 [Trametinib] (partner 0.02 µM)
Procedure, shortened: (§1)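 One day after seeding in 1536-well plates, lung cancer cell lines were dosed by pin tool. Dosing was either single-drug or a fixed anchor-drug dose plus five library-drug doses (not always all listed) in √10 steps. After 5 days, nuclei were stained in one fix-and-stain step and counted on 4× images, and relative viability is the nuclei count of treated wells over that of vehicle wells, given as the median of duplicate plates.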

[2] = compound: CC1=CC=C(C=C1)C(=O)CN2C3=C(CCCC3)SC2=N [Pifithrin_alpha] + C[C@@H](Oc1cc(-c2cnn(C3CCNCC3)c2)cnc1N)c1c(Cl)ccc(F)c1Cl [Crizotinib] (partner 1 µM)
Procedure, shortened: as §1

Axitinib + Pictilisib = compound: CNC(=O)c1ccccc1Sc1ccc2c(/C=C/c3ccccn3)n[nH]c2c1 [Axitinib] + CS(=O)(=O)N1CCN(Cc2cc3nc(-c4cccc5[nH]ncc45)nc(N4CCOCC4)c3s2)CC1 [Pictilisib] (partner 1 µM)
Procedure, shortened: as §1

Axitinib + Olaparib = compound: CNC(=O)c1ccccc1Sc1ccc2c(/C=C/c3ccccn3)n[nH]c2c1 [Axitinib] + O=C(c1cc(Cc2n[nH]c(=O)c3ccccc23)ccc1F)N1CCN(C(=O)C2CC2)CC1 [Olaparib] (partner 8 µM)
Procedure, shortened: as §1

Cell Line | relative viability ([1]; first compound 1 µM) | relative viability ([1]; first compound 3.162 µM) | relative viability ([1]; first compound 10 µM) | relative viability ([1]; first compound 31.62 µM) | relative viability ([1]; first compound 100 µM) | relative viability ([2]; first compound 1 µM) | relative viability ([2]; first compound 3.162 µM) | relative viability ([2]; first compound 10 µM) | relative viability ([2]; first compound 31.62 µM) | relative viability ([2]; first compound 100 µM) | relative viability (Axitinib + Pictilisib; first compound 0.005 µM) | relative viability (Axitinib + Pictilisib; first compound 0.01581 µM) | relative viability (Axitinib + Pictilisib; first compound 0.05 µM) | relative viability (Axitinib + Pictilisib; first compound 0.1581 µM) | relative viability (Axitinib + Pictilisib; first compound 0.5 µM) | relative viability (Axitinib + Olaparib; first compound 0.005 µM) | relative viability (Axitinib + Olaparib; first compound 0.01581 µM) | relative viability (Axitinib + Olaparib; first compound 0.05 µM) | relative viability (Axitinib + Olaparib; first compound 0.1581 µM) | relative viability (Axitinib + Olaparib; first compound 0.5 µM)
NCI-H1975 | 0.251 | 0.29 | 0.232 | 0.275 | 0.252 | 0.881 | 0.8 | 0.659 | 0.537 | 0.611 | 0.334 | 0.311 | 0.365 | 0.317 | 0.377 | 0.822 | 0.816 | 0.859 | 0.774 | 0.805
NCI-H661 | 0.561 | 0.603 | 0.555 | 0.462 | 0.503 | 1.16 | 0.93 | 0.908 | 1.17 | 0.988 | 0.387 | 0.422 | 0.339 | 0.46 | 0.375 | 0.724 | 0.753 | 0.741 | 0.698 | 0.834
NCI-H1651 | 0.833 | 0.821 | 0.863 | 0.851 | 0.958 | 0.942 | 0.924 | 0.934 | 0.835 | 0.959 | 0.631 | 0.503 | 0.665 | 0.576 | 0.567 | 0.194 | 0.19 | 0.198 | 0.175 | 0.206
NCI-H647 | 0.391 | 0.335 | 0.332 | 0.344 | 0.496 | 0.838 | 1.03 | 0.927 | – | 0.605 | 0.439 | 0.416 | 0.425 | 0.478 | 0.399 | 0.581 | 0.527 | 0.708 | 0.622 | 0.644
HCC-78 | – | 0.774 | 0.71 | 0.541 | 0.598 | 0.319 | 0.289 | 0.321 | – | 0.321 | 0.207 | 0.257 | 0.238 | 0.229 | 0.218 | 0.925 | 0.814 | 0.674 | 0.776 | 0.813
NCI-H2126 | 0.456 | 0.503 | 0.487 | 0.445 | 0.452 | 1.03 | 1.05 | 0.886 | 0.768 | 0.953 | 0.457 | 0.475 | 0.504 | 0.522 | 0.499 | 0.913 | 0.907 | 0.884 | 0.917 | 0.944
SK-LU-1 | 0.561 | 0.494 | 0.43 | 0.42 | 0.48 | 1.01 | 1.03 | 0.951 | 0.824 | 1.02 | 0.553 | 0.569 | 0.558 | 0.567 | 0.659 | 0.454 | 0.476 | 0.525 | 0.448 | 0.477
LC-2-ad | 0.973 | 0.945 | 0.912 | 0.757 | 0.811 | – | 0.505 | 0.425 | – | 0.473 | 0.505 | 0.516 | 0.458 | 0.54 | 0.469 | 0.735 | 0.693 | 0.738 | 0.708 | 0.76
NCI-H23 | 0.288 | 0.314 | 0.447 | 0.353 | 0.358 | 0.591 | 0.596 | 0.432 | 0.426 | 0.506 | 0.535 | 0.574 | 0.505 | 0.477 | 0.508 | 0.284 | 0.331 | 0.334 | 0.285 | 0.312
NCI-H2228 | 0.611 | 0.482 | 0.499 | 0.384 | 0.436 | 0.3 | 0.424 | 0.432 | 0.263 | 0.376 | 0.472 | 0.391 | 0.416 | 0.486 | 0.622 | 0.636 | 0.706 | 0.713 | 0.466 | 0.91
SW 1573 | – | 0.619 | 0.567 | 0.341 | 0.31 | 0.789 | 0.753 | 0.857 | 0.664 | 0.656 | 0.507 | 0.462 | 0.576 | 0.444 | 0.463 | 0.502 | 0.595 | 0.55 | 0.417 | 0.507
HCC-15 | 0.373 | 0.33 | 0.348 | 0.315 | 0.256 | 0.921 | 1.05 | 0.755 | 0.544 | 0.861 | 0.696 | 0.828 | 0.761 | 0.736 | 0.737 | 0.77 | 0.75 | 0.766 | 0.682 | 0.667
H3255 | 0.578 | 0.831 | 0.546 | 0.421 | 0.442 | 0.762 | 0.948 | 0.826 | 0.469 | 0.656 | 0.485 | 0.288 | 0.432 | 0.492 | 0.435 | 0.615 | 0.565 | 0.566 | 0.572 | 0.639
SK-MES-1 | 0.593 | 0.518 | 0.462 | 0.36 | 0.403 | 0.934 | 0.933 | 0.976 | 0.683 | 0.765 | 0.303 | 0.391 | 0.337 | 0.409 | 0.481 | 0.775 | 0.829 | 0.711 | 0.833 | 1.02
COR-L 105 | 0.259 | 0.424 | 0.432 | 0.421 | 0.454 | 0.678 | 0.644 | 0.712 | 0.469 | 0.75 | 0.42 | 0.411 | 0.379 | 0.382 | 0.385 | 0.805 | 0.721 | 0.647 | 0.962 | 0.797
NCI-H838 | 0.458 | 0.425 | 0.452 | 0.391 | 0.391 | 0.829 | 0.746 | 0.667 | 0.496 | 0.625 | 0.461 | 0.37 | 0.551 | 0.594 | 0.607 | 0.869 | 0.712 | 0.806 | 0.756 | 0.783
NCI-H2170 | 0.994 | 0.987 | 0.836 | 0.794 | 0.903 | 1.3 | 1.32 | 1.24 | 0.96 | 1.19 | 0.316 | 0.268 | 0.327 | 0.305 | 0.259 | 0.693 | 0.616 | 0.569 | 0.595 | 0.671
EKVX | 0.394 | 0.532 | 0.269 | 0.28 | 0.21 | 1.02 | 0.716 | 0.725 | 0.46 | 0.738 | 0.441 | 0.429 | 0.481 | 0.48 | 0.399 | 0.979 | 0.826 | 0.902 | 0.883 | 1.03
RERF-LC-KJ | 0.861 | 0.774 | 0.693 | 0.747 | 0.586 | 0.824 | 0.69 | 0.754 | 0.696 | 0.659 | 0.583 | 0.654 | 0.544 | 0.603 | 0.51 | 1.1 | 0.853 | 0.964 | 0.81 | 0.951
LK-2 | 0.811 | 0.856 | 0.684 | 0.601 | 0.687 | 0.2 | 0.22 | 0.217 | – | 0.212 | 0.556 | 0.434 | 0.512 | 0.506 | 0.486 | 0.65 | 0.609 | 0.762 | 0.712 | 0.545
NCI-H1666 | 0.8 | 0.737 | 0.791 | 0.706 | 0.494 | 0.665 | 0.63 | 0.549 | 0.474 | 0.316 | 0.414 | 0.459 | 0.433 | 0.512 | 0.584 | 0.741 | 0.756 | 0.7 | 0.765 | 0.728
LCLC-103H | 0.681 | 0.597 | 0.646 | 0.623 | 0.702 | 1.06 | 1.04 | 1.01 | 0.897 | 1.07 | 0.644 | 0.512 | 0.664 | 0.569 | 0.587 | 0.803 | 0.784 | 0.753 | 0.881 | 0.824
NCI-H1755 | 0.724 | 0.682 | 0.706 | 0.694 | 0.738 | 0.858 | 0.78 | 0.771 | 0.634 | 0.864 | 0.482 | 0.418 | 0.55 | 0.4 | 0.454 | 0.897 | 0.867 | 0.852 | 0.847 | 0.852
NCI-H520 | 0.777 | 0.652 | 0.785 | 0.535 | 0.741 | 1.19 | 0.805 | 0.731 | 0.509 | 0.833 | 0.326 | 0.247 | 0.288 | 0.272 | 0.327 | 0.342 | 0.345 | 0.361 | 0.251 | 0.368
PC-14 | 0.731 | 0.654 | 0.547 | 0.319 | 0.383 | 0.998 | 0.827 | 0.741 | 0.699 | 0.703 | 0.919 | 0.699 | 0.676 | 0.731 | 0.834 | 0.326 | 0.368 | 0.275 | 0.4 | 0.24
NCI-H2405 | – | 0.604 | 0.544 | 0.567 | 0.601 | 0.821 | 0.815 | 0.796 | 0.741 | 0.822 | 0.422 | 0.534 | 0.658 | 0.465 | 0.383 | 0.892 | 0.919 | 0.94 | 0.827 | 0.949
NCI-H596 | 0.762 | 0.675 | 0.76 | 0.587 | 0.675 | 0.953 | 0.92 | 0.952 | 0.883 | 1.02 | 0.352 | 0.359 | 0.417 | 0.379 | 0.364 | 0.739 | 0.663 | 0.739 | 0.719 | 0.705
